Measurements taken from patent publication EP0745595A1, “3-(3-Aryloxyphenyl)-1-(substituted methyl)-s-triazine-2,4,6-oxo or thiotrione herbicidal agents” (American Cyanamid Company, priority 1995, dated 1996).

Legend:
Format in all cases: in vivo
[1] = test system: ABUTILON THEOPHRASTI, MEDIC.; experiment: Postemergence herbicidal evaluation, ABUTH (Velvetleaf); details: rated four to five weeks after treatment, averaged
Description: (§1) In the tests, seedling plants are grown in jiffy flats for about two weeks. The test compounds are dispersed in 50/50 acetone/water mixtures containing 0.5% TWEEN®20, a polyoxyethylene sorbitan monolaurate surfactant of Atlas Chemical Industries, […] to the plants through a spray nozzle operating at 40 psi for a predetermined time. After spraying, the plants are placed on greenhouse benches and are cared for in the usual manner, commensurate with conventional greenhouse practices. From four to five weeks after treatment, the seedling plants are examined and rated according to the rating system set forth below. Where more than one test is involved for a given compound, the data are averaged.
(§2) Plant species employed in these evaluations are reported by header abbreviation, common name and scientific name.
(§3) Results of herbicide evaluation are expressed on a rating scale (0-9). The scale is based upon a visual observation of plant stand, vigor, malformation, size, chlorosis and overall plant appearance as compared with a control.

[2] = test system: AMBROSIA ARTEMISIIFOLIA, L.; experiment: Postemergence herbicidal evaluation, AMBEL (Ragweed, Common); details: rated four to five weeks after treatment, averaged
Description: as §1, §2, §3

CHENOPODIUM ALBUM, L. [3] = experiment: Preemergence herbicidal evaluation, CHEAL (Lambsquarters, Common); details: four to five weeks after treatment
From the text: as §3
The preemergence herbicidal activity of the test compounds of the present invention is exemplified by the following tests in which the seeds of a variety of monocotyledonous and dicotyledonous plants are separately mixed with potting soil and planted on top of approximately one inch of soil in separate pint cups. […] The treated cups are then placed on greenhouse benches, watered and cared for in accordance with conventional greenhouse procedures. From four to five weeks after treatment, the tests are terminated and each cup is examined and rated according to the rating system provided in Example 40.
The compounds evaluated are reported by compound number given in Example 40.

CHENOPODIUM ALBUM, L. [4] = experiment: Postemergence herbicidal evaluation, CHEAL (Lambsquarters, Common); details: rated four to five weeks after treatment, averaged
Description: as §1, §2, §3

CYPERUS IRIA = experiment: Preemergence weed control under flooded paddy conditions, CYPIR (Rice Flatsedge); details: preemergence weeds, rated three to four weeks after treatment
Description: as §3
(§4) Preemergence herbicidal activity under flooded paddy conditions is determined as follows: plant seeds or propagating organs are planted in the top 0.5 cm of silt loam soil in 32 oz. plastic containers with a diameter of 10.5 cm and no drainage holes. Water is added to these containers and maintained at 1.5 to 3 cm above the soil surface for the duration of the experiment. […] The treated containers are placed on greenhouse benches and cared for according to normal greenhouse procedures.- Three to four weeks after treatment the test is terminated and each container is examined and herbicidal effect rated according to the rating system provided in Example 40. The compounds evaluated are reported by compound number given in Example 40.
(§5) Plant species employed in this example are reported by header abbreviation, common name and scientific name.

[5] = test system: ECHINOCHLOA ORYZOIDES (ARD.)FRITSCH; experiment: Preemergence weed control under flooded paddy conditions, ECHORC (Watergrass (Calif.)); details: preemergence weeds, rated three to four weeks after treatment
Description: as §3, §4, §5

[…], PRESL. = Preemergence weed control under flooded paddy conditions, MOOVA (Monochoria); details: preemergence weeds, rated three to four weeks after treatment
Description: as §3
Preemergence herbicidal activity under flooded paddy conditions is determined as follows: plant seeds or propagating organs are planted in the top 0.5 cm of silt loam soil in 32 oz. plastic containers with a diameter of 10.5 cm and no drainage holes. Water is added to these containers and maintained at 1.5 to 3 cm above the soil surface for the duration of the experiment. The test compounds are applied as aqueous/acetone mixtures 50/50 v/v pipetted directly into the flood water to give the equivalent of about 0.5, 0.25, 0.125 and 0.063 kg/ha of active ingredient. The treated containers are placed on greenhouse benches and cared for according to normal greenhouse procedures.- Three to four weeks after treatment the test is terminated and each container is examined and herbicidal effect rated according to the rating system provided in Example 40. The compounds evaluated are reported by compound number given in Example 40.
as §5

[6] = test system: ORYZA SATIVA, L. TEBONNET; experiment: Rice tolerance to post-transplant applications under flooded paddy conditions, ORYSAT (Rice, Tebonnet); details: post-transplant rice, rated three to four weeks after treatment
Description: as §3
The tolerance of transplanted rice to post-transplanted herbicide applications is determined as follows: two ten-day-old rice seedlings (CV. Tebonnet) are transplanted into a silt loam soil in 32 oz. plastic containers with a diameter of 10.5 cm and no drainage holes. After transplanting the containers are flooded and the water level is maintained at 1.5 to 3 cm above the soil surface. […] The treated containers are placed on greenhouse benches, watered such that the water level is maintained as stated above, and cared for according to normal greenhouse procedures. Three to four weeks after treatment the test is terminated and each container is examined and herbicidal effect rated according to the rating system provided in Example 40. The compounds evaluated are reported by compound number given in Example 40.
as §5

IPOMOEA SPP. = experiment: Postemergence herbicidal evaluation, IPOSS (Morningglory spp.); details: rated four to five weeks after treatment, averaged
Description: as §1, §2, §3

CASSIA OBTUSIFOLIA, L. = experiment: Postemergence herbicidal evaluation, CASOB (Sicklepod); details: rated four to five weeks after treatment, averaged
Description: In the tests, seedling plants are grown in jiffy flats for about two weeks. The test compounds are dispersed in 50/50 acetone/water mixtures containing 0.5% TWEEN®20, a polyoxyethylene sorbitan monolaurate surfactant of Atlas Chemical Industries, in sufficient quantities to provide the equivalent of about 0.125 kg to 0.500 kg per hectare of active compound when applied to the plants through a spray nozzle operating at 40 psi for a predetermined time. After spraying, the plants are placed on greenhouse benches and are cared for in the usual manner, commensurate with conventional greenhouse practices. From four to five weeks after treatment, the seedling plants are examined and rated according to the rating system set forth below. Where more than one test is involved for a given compound, the data are averaged.
as §2, §3

## CCOC(=O)Cn1c(=O)n(C)c(=O)n(-c2cc(Oc3ccc(C(F)(F)F)cc3Cl)ccc2[N+](=O)[O-])c1=O [Compound 9, Ethyl 3-{5-[(2-chloro-α,α,α-trifluoro-p-tolyl)oxy]-2-nitrophenyl}tetrahydro-5-methyl-2,4,6-trioxo-s-triazine-1(2H)-acetate]
[1]; Rate 0.125 kg/ha
  ABUTH, herbicide rating (0-9): 9.0
[1]; Rate 0.250 kg/ha
  ABUTH, herbicide rating (0-9): 9.0
[1]; Rate 0.500 kg/ha
  ABUTH, herbicide rating (0-9): 9.0
[2]; Rate 0.125 kg/ha
  AMBEL, herbicide rating (0-9): 9.0
[2]; Rate 0.250 kg/ha
  AMBEL, herbicide rating (0-9): 9.0
[2]; Rate 0.500 kg/ha
  AMBEL, herbicide rating (0-9): 9.0
CHENOPODIUM ALBUM, L. [3]; Rate 0.125 kg/ha
  CHEAL rating: 9.0
CHENOPODIUM ALBUM, L. [3]; Rate 0.250 kg/ha
  CHEAL rating: 9.0
CHENOPODIUM ALBUM, L. [3]; Rate 0.500 kg/ha
  CHEAL rating: 9.0
CHENOPODIUM ALBUM, L. [4]; Rate 0.125 kg/ha
  CHEAL, herbicide rating (0-9): 9.0
CHENOPODIUM ALBUM, L. [4]; Rate 0.250 kg/ha
  CHEAL, herbicide rating (0-9): 9.0
CHENOPODIUM ALBUM, L. [4]; Rate 0.500 kg/ha
  CHEAL, herbicide rating (0-9): 9.0
CYPERUS IRIA; Rate 0.063 kg/ha
  CYPIR herbicidal rating: 9.0
CYPERUS IRIA; Rate 0.125 kg/ha
  CYPIR herbicidal rating: 9.0
CYPERUS IRIA; Rate 0.250 kg/ha
  CYPIR herbicidal rating: 9.0
CYPERUS IRIA; Rate 0.500 kg/ha
  CYPIR herbicidal rating: 9.0
[5]; Rate 0.063 kg/ha
  ECHORC herbicidal rating: 9.0
[5]; Rate 0.125 kg/ha
  ECHORC herbicidal rating: 9.0
[5]; Rate 0.250 kg/ha
  ECHORC herbicidal rating: 9.0
[5]; Rate 0.500 kg/ha
  ECHORC herbicidal rating: 9.0
[…], PRESL.; Rate 0.063 kg/ha
  MOOVA herbicidal rating: 9.0
[…], PRESL.; Rate 0.125 kg/ha
  MOOVA herbicidal rating: 9.0
[…], PRESL.; Rate 0.250 kg/ha
  MOOVA herbicidal rating: 9.0
[…], PRESL.; Rate 0.500 kg/ha
  MOOVA herbicidal rating: 9.0
[6]; Rate 0.063 kg/ha
  ORYSAT herbicidal rating (rice tolerance): 3.3
[6]; Rate 0.125 kg/ha
  ORYSAT herbicidal rating (rice tolerance): 3.7
[6]; Rate 0.250 kg/ha
  ORYSAT herbicidal rating (rice tolerance): 5.7
[6]; Rate 0.500 kg/ha
  ORYSAT herbicidal rating (rice tolerance): 6.0
IPOMOEA SPP.; Rate 0.125 kg/ha
  IPOSS, herbicide rating (0-9): 9.0
IPOMOEA SPP.; Rate 0.250 kg/ha
  IPOSS, herbicide rating (0-9): 9.0
IPOMOEA SPP.; Rate 0.500 kg/ha
  IPOSS, herbicide rating (0-9): 9.0
CASSIA OBTUSIFOLIA, L.; Rate 0.125 kg/ha
  CASOB, herbicide rating (0-9): 9.0
CASSIA OBTUSIFOLIA, L.; Rate 0.250 kg/ha
  CASOB, herbicide rating (0-9): 9.0
CASSIA OBTUSIFOLIA, L.; Rate 0.500 kg/ha
  CASOB, herbicide rating (0-9): 9.0
